Laboratory results from ChEMBL document CHEMBL4033668, “Inhibitors of cytochrome P450 (CYP) 1B1” (Eur J Med Chem, 2017).

How the values were obtained:
Cytochrome P450 1B1 [1] = target: T1, Cytochrome P450 1B1 (Homo sapiens, UniProt Q16678); test: Inhibition of CYP1B1 in TCDD-exposed human MCF-7 cells using ethoxyresorufin as substrate after 20 mins in presence of NADPH by Lineweaver-Burk linear regression plot analysis
T1 sequence (Q16678 whole entry): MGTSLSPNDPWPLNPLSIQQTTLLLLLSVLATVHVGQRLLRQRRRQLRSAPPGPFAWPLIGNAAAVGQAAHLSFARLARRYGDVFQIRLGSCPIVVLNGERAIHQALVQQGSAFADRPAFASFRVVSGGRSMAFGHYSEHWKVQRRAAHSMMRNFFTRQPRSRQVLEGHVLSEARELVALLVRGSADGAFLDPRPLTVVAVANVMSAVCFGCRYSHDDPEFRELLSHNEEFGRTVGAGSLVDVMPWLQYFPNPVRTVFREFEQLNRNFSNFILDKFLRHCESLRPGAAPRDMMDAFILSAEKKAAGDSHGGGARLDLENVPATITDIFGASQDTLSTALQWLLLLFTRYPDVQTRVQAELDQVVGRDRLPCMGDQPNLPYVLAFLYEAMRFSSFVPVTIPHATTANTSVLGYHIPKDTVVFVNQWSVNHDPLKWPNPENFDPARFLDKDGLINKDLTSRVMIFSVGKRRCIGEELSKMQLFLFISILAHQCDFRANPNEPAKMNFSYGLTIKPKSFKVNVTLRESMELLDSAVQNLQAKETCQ

Cytochrome P450 1B1 [2] = target: T1, Cytochrome P450 1B1; test: Inhibition of CYP1B1 in TCDD-exposed human MCF-7 cells using ethoxyresorufin as substrate after 20 mins in presence of NADPH by spectrofluorimetric analysis
Cytochrome P450 1A1 [3] = target: T2, Cytochrome P450 1A1 (Homo sapiens, UniProt P04798); test: Inhibition of CYP1A1 in TCDD-exposed human MCF-7 cells using ethoxyresorufin as substrate after 20 mins in presence of NADPH by spectrofluorimetric analysis; type: ADME
T2 sequence (P04798 whole entry): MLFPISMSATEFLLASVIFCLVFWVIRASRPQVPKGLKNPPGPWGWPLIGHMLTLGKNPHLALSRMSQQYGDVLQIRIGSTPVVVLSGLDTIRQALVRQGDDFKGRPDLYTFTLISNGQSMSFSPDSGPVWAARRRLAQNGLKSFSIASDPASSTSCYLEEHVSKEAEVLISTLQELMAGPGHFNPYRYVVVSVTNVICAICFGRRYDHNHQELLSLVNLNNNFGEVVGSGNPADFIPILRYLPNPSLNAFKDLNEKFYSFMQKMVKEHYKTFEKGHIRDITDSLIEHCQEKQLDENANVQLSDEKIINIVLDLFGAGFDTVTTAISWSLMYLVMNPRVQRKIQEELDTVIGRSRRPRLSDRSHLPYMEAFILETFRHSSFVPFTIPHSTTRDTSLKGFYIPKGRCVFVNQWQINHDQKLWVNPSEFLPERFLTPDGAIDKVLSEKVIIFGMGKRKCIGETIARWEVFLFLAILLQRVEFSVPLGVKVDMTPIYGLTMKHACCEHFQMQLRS

[4] = Selectivity ratio of IC50 for CYP1A1 in TCDD-exposed human MCF-7 cells to IC50 for CYP1B1 in TCDD-exposed human MCF-7 cells
[5] = Competitive inhibition of […] CYP1 expressed in supersomes coexpressing NADPH-CYP reductase using 7-Ethoxyresorufin as substrate measured every 5 mins for 30 mins in presence of NADPH by fluorescence assay; type: ADME
Cytochrome P450 1A1 [6] = target: T2, Cytochrome P450 1A1; test: Mixed type inhibition of human hepatic microsomes CYP1A1 expressed in supersomes coexpressing NADPH-cytochrome P450 reductase using 7-Ethoxyresorufin as substrate measured every 30 secs for 3 mins in presence of NADPH by spectrofluorometric analysis; type: ADME
Cytochrome P450 1B1 [7] = target: T1, Cytochrome P450 1B1; test: Mixed type inhibition of human hepatic microsomes CYP1B1 expressed in supersomes coexpressing NADPH-cytochrome P450 reductase using 7-Ethoxyresorufin as substrate measured every 30 secs for 3 mins in presence of NADPH by spectrofluorometric analysis
Cytochrome P450 1A1 [8] = target: T2, Cytochrome P450 1A1; test: Competitive inhibition of […] CYP1A1 expressed in supersomes coexpressing NADPH-CYP reductase using 7-Ethoxyresorufin as substrate measured every 5 mins for 30 mins in presence of NADPH by fluorescence assay; type: ADME; conditions: read-out: Ki
Cytochrome P450 1A2 [9] = target: T3, Cytochrome P450 1A2 (Homo sapiens, UniProt P05177); test: Competitive inhibition of […] CYP1A2 expressed in supersomes coexpressing NADPH-CYP reductase using 7-Ethoxyresorufin as substrate measured every 5 mins for 30 mins in presence of NADPH by fluorescence assay; type: ADME
T3 sequence (P05177 whole entry): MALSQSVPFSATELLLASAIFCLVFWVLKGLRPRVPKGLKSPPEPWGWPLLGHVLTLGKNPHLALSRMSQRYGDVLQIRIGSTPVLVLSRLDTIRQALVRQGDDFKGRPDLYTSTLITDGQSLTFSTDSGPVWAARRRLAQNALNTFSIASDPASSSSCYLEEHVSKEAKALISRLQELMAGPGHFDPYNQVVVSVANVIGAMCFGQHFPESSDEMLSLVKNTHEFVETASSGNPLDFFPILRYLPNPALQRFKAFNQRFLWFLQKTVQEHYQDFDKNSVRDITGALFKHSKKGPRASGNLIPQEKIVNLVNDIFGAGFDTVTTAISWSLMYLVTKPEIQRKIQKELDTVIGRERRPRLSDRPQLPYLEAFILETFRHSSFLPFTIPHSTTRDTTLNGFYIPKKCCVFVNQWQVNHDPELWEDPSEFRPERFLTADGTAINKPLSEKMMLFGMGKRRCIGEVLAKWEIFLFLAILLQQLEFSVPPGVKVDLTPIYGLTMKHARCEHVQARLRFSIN

Cytochrome P450 1B1 [10] = target: T1, Cytochrome P450 1B1; test: Competitive inhibition of […] CYP1B1 expressed in supersomes coexpressing NADPH-CYP reductase using 7-Ethoxyresorufin as substrate measured every 5 mins for 30 mins in presence of NADPH by fluorescence assay
Cytochrome P450 1A2 [11] = target: T3, Cytochrome P450 1A2; test: Inhibition of recombinant human CYP1A2 expressed in Escherichia coli DH5alpha using ethoxyresorufin as substrate preincubated for 3 mins followed by NADPH addition measured after 10 mins by spectrofluorometric assay; type: ADME
Cytochrome P450 1B1 [12] = target: T1, Cytochrome P450 1B1; test: Inhibition of recombinant human CYP1B1 expressed in supersomes using ethoxyresorufin as substrate after 20 mins in presence of NADPH by fluorescence assay

Which results are given for `Br.Cc1ccc(C(=O)Cn2c3c(sc2=N)CCCC3)cc1`?
Ki (Cytochrome P450 1B1 [1]): 4.38 nM; IC50 (Cytochrome P450 1B1 [2]): 20.6 nM; IC50 (Cytochrome P450 1A1 [3]): 1500 nM; Ratio IC50 [4]: 73

Which Ki [5] does the source give for `CCCCCc1cc(O)c2c(c1)OC(C)(C)[C@@H]1CCC(C)=C[C@@H]21` [DRONABINOL] here?
Its Ki is 2470 to 7540 nM.

With `COc1ccc2[nH]cc(CCNC(C)=O)c2c1` [MELATONIN] as the molecule, how does the Ki (Cytochrome P450 1A1 [6]) read?
The Ki was 59000 nM.

What about the Ki (Cytochrome P450 1B1 [7]) of the same molecule?
The Ki was 14000 nM.

With `CCCCCc1cc(O)c2c(c1)OC(C)(C)c1ccc(C)cc1-2` [CANNABINOL] as the molecule, how does the Ki (Cytochrome P450 1A1 [8]) read?
The Ki was 541 nM.

What about the Ki (Cytochrome P450 1A2 [9]) of the same molecule?
The Ki was 79 nM.

And the Ki (Cytochrome P450 1B1 [10])?
Its Ki is 148 nM.

With `COc1cc(/C=C/c2ccc(OC)cc2OC)cc(OC)c1` as the molecule, how does the IC50 (Cytochrome P450 1A2 [11]) read?
Its IC50 is 3000 nM.

With `C=C(C)C1CC=C(CO)CC1` (configuration not stated) as the molecule, how does the Ki (Cytochrome P450 1B1 [12]) read?
Its Ki is 2000 nM.
